Reference: ChEMBL document CHEMBL4699634, “Series of Novel and Highly Potent Cyclic Peptide PCSK9 Inhibitors Derived from an mRNA Display Screen and Optimized via Structure-Based Design” (J Med Chem, 2020)
Numbered stars: 1 amine (or outer) side, 2 acyl side, 3 side chain; on linkers, the order of the positions; unused ones are H or OH. Bridge positions count the residues as written; N and C are the ends. Square brackets hold non-standard residues; d marks the D form. Peptide text beside a SMILES is read from it. ξ: configuration not given here. Trp(5-F) = N[C@@H](Cc1c[nH]c2ccc(F)cc12)C(=O)O; Trp(7-aza) = N[C@@H](Cc1c[nH]c2ncccc12)C(=O)O; NMePhe(4-F) = CN[C@@H](Cc1ccc(F)cc1)C(=O)O; Bip = N[C@@H](Cc1ccc(-c2ccccc2)cc1)C(=O)O; mXylylene = c1cc(C[*:1])cc(C[*:2])c1; Tle = CC(C)(C)[C@H](N)C(=O)O; Nva = CCC[C@H](N)C(=O)O; ξNle = CCCCC(N)C(=O)O; Mpa = O=C(O)CCS

Biological target: PCSK9/LDLR (Homo sapiens, UniProt Q8NBP7)
Test: Inhibition of avi-tagged-biotinylated human PCSK9 interaction with His-tagged human LDLR EGFa domain by LANCE Ulight Streptavidin based TR-FRET assay
Format: protein assay

Chain of PCSK9/LDLR (Q8NBP7 31-152 limits assumed): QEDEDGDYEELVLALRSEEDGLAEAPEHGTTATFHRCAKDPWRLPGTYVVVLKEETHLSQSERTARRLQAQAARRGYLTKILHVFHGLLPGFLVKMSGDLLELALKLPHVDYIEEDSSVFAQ
Chain of PCSK9/LDLR (Q8NBP7 153-692 limits assumed): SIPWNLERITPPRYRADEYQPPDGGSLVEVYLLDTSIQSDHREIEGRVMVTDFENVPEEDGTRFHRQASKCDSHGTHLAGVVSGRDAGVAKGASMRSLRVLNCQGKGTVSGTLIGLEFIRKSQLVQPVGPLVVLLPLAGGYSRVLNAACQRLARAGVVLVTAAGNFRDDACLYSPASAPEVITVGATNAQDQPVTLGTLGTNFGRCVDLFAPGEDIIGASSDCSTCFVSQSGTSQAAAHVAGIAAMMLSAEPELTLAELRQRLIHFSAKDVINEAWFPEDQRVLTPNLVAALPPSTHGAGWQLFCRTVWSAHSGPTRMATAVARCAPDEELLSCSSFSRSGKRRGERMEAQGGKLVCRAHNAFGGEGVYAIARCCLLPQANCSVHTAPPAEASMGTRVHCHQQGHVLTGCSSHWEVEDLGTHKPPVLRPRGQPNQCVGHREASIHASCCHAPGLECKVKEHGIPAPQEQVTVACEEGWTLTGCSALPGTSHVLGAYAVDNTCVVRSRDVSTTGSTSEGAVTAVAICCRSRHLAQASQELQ
Chain of PCSK9/LDLR (P01130 22-860 partner limits assumed): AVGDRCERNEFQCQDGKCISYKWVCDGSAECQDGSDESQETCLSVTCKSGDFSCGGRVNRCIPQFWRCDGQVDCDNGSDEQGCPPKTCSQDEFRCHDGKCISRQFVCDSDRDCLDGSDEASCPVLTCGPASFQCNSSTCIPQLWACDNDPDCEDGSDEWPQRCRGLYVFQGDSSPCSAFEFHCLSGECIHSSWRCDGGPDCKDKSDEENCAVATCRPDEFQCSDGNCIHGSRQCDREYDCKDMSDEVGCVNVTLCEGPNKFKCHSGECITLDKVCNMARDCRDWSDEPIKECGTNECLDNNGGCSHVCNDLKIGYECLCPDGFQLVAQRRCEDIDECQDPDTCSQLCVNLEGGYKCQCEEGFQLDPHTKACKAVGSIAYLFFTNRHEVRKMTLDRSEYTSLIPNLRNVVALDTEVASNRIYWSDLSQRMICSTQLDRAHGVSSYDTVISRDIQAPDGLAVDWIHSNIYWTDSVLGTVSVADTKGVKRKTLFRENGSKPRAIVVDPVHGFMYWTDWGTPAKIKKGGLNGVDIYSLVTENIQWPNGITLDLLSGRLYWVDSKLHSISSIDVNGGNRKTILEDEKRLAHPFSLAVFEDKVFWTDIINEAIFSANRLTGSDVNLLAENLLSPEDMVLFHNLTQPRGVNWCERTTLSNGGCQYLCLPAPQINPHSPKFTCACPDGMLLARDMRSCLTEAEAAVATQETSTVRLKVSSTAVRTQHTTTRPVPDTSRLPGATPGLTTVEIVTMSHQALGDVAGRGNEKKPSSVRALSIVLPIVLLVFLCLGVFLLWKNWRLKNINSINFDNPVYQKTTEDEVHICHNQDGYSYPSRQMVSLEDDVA

Ki [nM] | Compound
> 48000 | NCCCC[C@@H]1NC(=O)CCSCc2cccc(c2)CSC[C@@H](C(N)=O)NC(=O)[C@@H]2CCCN2C(=O)[C@@H](Cc2ccc(O)cc2)NC(=O)[C@H](Cc2cnc[nH]2)NC(=O)[C@H](CC(=O)O)NC(=O)[C@H](Cc2c[nH]c3ccc(F)cc23)NC(=O)[C@H](Cc2c[nH]c3ccc(F)cc23)NC(=O)CNC1=O
> 48000 | NCCCC[C@@H]1NC(=O)CCSCc2cccc(c2)CSC[C@@H](C(N)=O)NC(=O)[C@@H]2CCCN2C(=O)[C@H](Cc2ccc(O)cc2)NC(=O)[C@H](Cc2cnc[nH]2)NC(=O)[C@H](CC(=O)O)NC(=O)[C@@H](Cc2c[nH]c3ccccc23)NC(=O)[C@H](Cc2c[nH]c3ccc(F)cc23)NC(=O)CNC1=O
> 48000 | NCCCC[C@@H]1NC(=O)CCSCc2cccc(c2)CSC[C@@H](C(N)=O)NC(=O)[C@@H]2CCCN2C(=O)[C@H](Cc2ccc(O)cc2)NC(=O)[C@@H](Cc2cnc[nH]2)NC(=O)[C@H](CC(=O)O)NC(=O)[C@H](Cc2c[nH]c3ccc(F)cc23)NC(=O)[C@H](Cc2c[nH]c3ccc(F)cc23)NC(=O)CNC1=O
> 48000 | NCCCC[C@@H]1NC(=O)CCSCc2cccc(c2)CSC[C@@H](C(N)=O)NC(=O)[C@@H]2CCCN2C(=O)[C@H](Cc2ccc(O)cc2)NC(=O)[C@H](Cc2cnc[nH]2)NC(=O)[C@H](CC(=O)O)NC(=O)[C@H](Cc2c[nH]c3ccc(F)cc23)NC(=O)[C@@H](Cc2c[nH]c3ccccc23)NC(=O)CNC1=O
> 48000 | NCCCC[C@@H]1NC(=O)CCSCc2cccc(c2)CSC[C@@H](C(N)=O)NC(=O)[C@@H]2CCCN2C(=O)[C@H](Cc2ccc(O)cc2)NC(=O)[C@H](Cc2cnc[nH]2)NC(=O)[C@@H](CC(=O)O)NC(=O)[C@H](Cc2c[nH]c3ccc(F)cc23)NC(=O)[C@H](Cc2c[nH]c3ccc(F)cc23)NC(=O)CNC1=O
103 | CC(=O)N[C@H]1CSCc2cccc(c2)CSC[C@@H](C(N)=O)NC(=O)[C@@H]2CCCN2C(=O)[C@H](Cc2ccc(O)cc2)NC(=O)[C@H](Cc2c[nH]cn2)NC(=O)[C@H](CC(=O)O)NC(=O)[C@H](Cc2c[nH]c3ccc(F)cc23)NC(=O)[C@H](Cc2c[nH]c3ccccc23)NC(=O)CNC(=O)[C@H](CCCCN)NC1=O (Ac-CKGW[Trp(5-F)]DHYPC-NH2; linker 1-10 via mXylylene)
1070 | CC(=O)N[C@H]1CSCc2cccc(c2)CSC[C@@H](C(N)=O)NC(=O)[C@@H]2CCCN2C(=O)[C@H](Cc2ccc(O)cc2)NC(=O)[C@H](Cc2cnc[nH]2)NC(=O)[C@H](CC(=O)O)NC(=O)[C@H](Cc2c[nH]c3ccccc23)NC(=O)[C@H](Cc2c[nH]c3ccc(F)cc23)NC(=O)CNC(=O)[C@H](CCCCN)NC1=O (Ac-CKG[Trp(5-F)]WDHYPC-NH2; linker 1-10 via mXylylene)

Further lines, the molecule ahead of its results:

Compound | Ki [nM]
NCCCC[C@@H]1NC(=O)CCSCc2cccc(c2)CSC[C@H](C(N)=O)NC(=O)[C@@H]2CCCN2C(=O)[C@H](Cc2ccc(O)cc2)NC(=O)[C@H](Cc2cnc[nH]2)NC(=O)[C@H](CC(=O)O)NC(=O)[C@H](Cc2c[nH]c3ccc(F)cc23)NC(=O)[C@H](Cc2c[nH]c3ccc(F)cc23)NC(=O)CNC1=O | 2010
C[C@H](O)[C@H]1NC(=O)[C@H](CCCCN)NC(=O)CCSCc2cccc(c2)CSCCNC(=O)[C@]2(C)CCCN2C(=O)[C@H](Cc2ccc(O)cc2)NC(=O)[C@H](Cc2cnc[nH]2)NC(=O)[C@H](CC(=O)O)NC(=O)[C@H](Cc2c[nH]c3ccc(F)cc23)NC(=O)[C@H](Cc2c[nH]c3ccc(F)cc23)NC1=O | 26.9
NCCCC[C@@H]1NC(=O)CCSCc2cccc(c2)CSC[C@@H](C(N)=O)NC(=O)[C@H]2CCCN2C(=O)[C@H](Cc2ccc(O)cc2)NC(=O)[C@H](Cc2cnc[nH]2)NC(=O)[C@H](CC(=O)O)NC(=O)[C@H](Cc2c[nH]c3ccc(F)cc23)NC(=O)[C@H](Cc2c[nH]c3ccc(F)cc23)NC(=O)CNC1=O | > 50000
NCCCC[C@H]1NC(=O)CCSCc2cccc(c2)CSC[C@@H](C(N)=O)NC(=O)[C@@H]2CCCN2C(=O)[C@H](Cc2ccc(O)cc2)NC(=O)[C@H](Cc2cnc[nH]2)NC(=O)[C@H](CC(=O)O)NC(=O)[C@H](Cc2c[nH]c3ccc(F)cc23)NC(=O)[C@H](Cc2c[nH]c3ccc(F)cc23)NC(=O)CNC1=O | 16200
C[C@@H]1NC(=O)CCSCc2cccc(c2)CSCCNC(=O)[C@]2(C)CCCN2C(=O)[C@H](Cc2ccc(O)cc2)NC(=O)[C@H](Cc2cnc[nH]2)NC(=O)[C@H](CC(=O)O)NC(=O)[C@H](Cc2c[nH]c3ccc(F)cc23)NC(=O)[C@H](Cc2c[nH]c3ccc(F)cc23)NC(=O)[C@@H](CCCCN)NC1=O | 48.1
CC(=O)N[C@H]1CSCc2cccc(c2)CSC[C@@H](C(N)=O)NC(=O)[C@@H]2CCCN2C(=O)[C@H](Cc2ccc(O)cc2)NC(=O)[C@H](Cc2cnc[nH]2)NC(=O)[C@H](CC(=O)O)NC(=O)[C@H](Cc2c[nH]c3ccc(F)cc23)NC(=O)[C@H](Cc2c[nH]c3ccc(F)cc23)NC(=O)CNC(=O)[C@H](CCCCN)NC1=O (Ac-CKG[Trp(5-F)][Trp(5-F)]DHYPC-NH2; linker 1-10 via mXylylene) | 47.1
CC(=O)N[C@@H](Cc1cnc[nH]1)C(=O)N(C)[C@@H](Cc1ccc(F)cc1)C(=O)N[C@H]1CSCc2cccc(c2)CSC[C@@H](C(N)=O)NC(=O)[C@@H]2CCCN2C(=O)[C@H](Cc2ccc(O)cc2)NC(=O)[C@H](Cc2cnc[nH]2)NC(=O)[C@H](CC(=O)O)NC(=O)[C@H](Cc2c[nH]c3ccc(F)cc23)NC(=O)[C@H](Cc2c[nH]c3ccc(F)cc23)NC(=O)CNC(=O)[C@H](CCCCN)NC1=O (Ac-H[NMePhe(4-F)]CKG[Trp(5-F)][Trp(5-F)]DHYPC-NH2; linker 3-12 via mXylylene) | 956
CCCCC(NC(C)=O)C(=O)N[C@H]1CSCc2cccc(c2)CSC[C@@H](C(N)=O)NC(=O)[C@H]([C@@H](C)O)NC(=O)[C@H](CCC)NC(=O)[C@H](Cc2ccc(O)cc2)NC(=O)[C@H](CCC(=O)O)NC(=O)[C@H](CCC)NC(=O)[C@H](Cc2c[nH]c3ncccc23)NC(=O)[C@H]([C@@H](C)O)NC(=O)[C@H](Cc2cnc[nH]2)NC(=O)[C@H](Cc2ccc(O)cc2)NC(=O)[C@H](C(C)(C)C)NC1=O (stereo partly drawn) (Ac-[ξNle]C[Tle]YHT[Trp(7-aza)][Nva]EY[Nva]TC-NH2; linker 2-13 via mXylylene) | 134
C[C@@H]1NC(=O)[C@H](CCCCN)NC(=O)CCSCc2cccc(c2)CSC[C@@H](C(N)=O)NC(=O)[C@@H]2CCCN2C(=O)[C@H](Cc2ccc(O)cc2)NC(=O)[C@H](Cc2cnc[nH]2)NC(=O)[C@H](CC(=O)O)NC(=O)[C@H](Cc2c[nH]c3ccc(F)cc23)NC(=O)[C@H](Cc2c[nH]c3ccc(F)cc23)NC1=O ([Mpa]KA[Trp(5-F)][Trp(5-F)]DHYPC-NH2; linker 1-10 via mXylylene) | > 48000
C[C@@H]1NC(=O)CNC(=O)[C@H](CCCCN)NC(=O)CCSCc2cccc(c2)CSC[C@@H](C(N)=O)NC(=O)[C@@H]2CCCN2C(=O)[C@H](Cc2ccc(O)cc2)NC(=O)[C@H](Cc2cnc[nH]2)NC(=O)[C@H](CC(=O)O)NC(=O)[C@H](Cc2c[nH]c3ccc(F)cc23)NC1=O ([Mpa]KGA[Trp(5-F)]DHYPC-NH2; linker 1-10 via mXylylene) | 656
NCCCC[C@@H]1NC(=O)CCSCc2cccc(c2)CSC[C@@H](C(N)=O)NC(=O)[C@@H]2CCCN2C(=O)[C@H](Cc2ccc(O)cc2)NC(=O)[C@H](Cc2c[nH]cn2)NC(=O)[C@H](CC(=O)O)NC(=O)[C@H](Cc2c[nH]c3ccc(F)cc23)NC(=O)[C@H](Cc2ccc(-c3ccccc3)cc2)NC(=O)CNC1=O ([Mpa]KG[Bip][Trp(5-F)]DHYPC-NH2; linker 1-10 via mXylylene) | 29300
